According to patent publication US8871756B2 (Hoffmann-La Roche Inc., priority 2011, dated 2014):

System: RSV Long strain
Assay: Viral cytopathic effect (CPE) assay, anti-RSV activity
Type: cell-based, Respiratory Syncytial Virus
Settings: human respiratory syncytial virus, 144 h, RSV Long strain (ATCC); cell viability after 6 days, Cell Counting kit-8
Procedure, shortened: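 Cells (6×10^3/well, DMEM with 10% FBS) were infected next day with RSV Long strain, at a dose giving approximately 80–90% CPE, alongside serial half-log compound dilutions. Viability was read after 6 days by CCK-8 absorbance at 450 nm (reference 630 nm), and EC50 was derived from it.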

EC50 | SMILES
6.1 µM | NCCNc1cc(N2Cc3ccc(Br)cc3CCC2=O)nc2ccccc12 [Example 124, 2-{4-[(2-Aminoethyl)amino]quinolin-2-yl}-7-bromo-1,2,4,5-tetrahydro-3H-2-benz azepin-3-one]
3.14 µM | CN(C)C(=O)c1ccc2c(c1)CCCN(c1cc(NCCN)c3cc(Cl)ccc3n1)C2 [Example 123, 2-{4-[(2-Aminoethyl)amino]-6-chloroquinolin-2-yl}-N,N-dimethyl-2,3,4,5-tetrahydro-1H-2-benzazepine-7-carboxamide]
4.8 µM | C#Cc1ccc2nc(N3CCS(=O)(=O)c4ccccc4C3)cc(NCCCN)c2c1 [Example 54, N-[2-(1,1-Dioxido-2,3-dihydro-1,4-benzothiazepin-4(5H)-yl)-6-ethynylquinolin-4-yl]propane-1,3-diamine]
0.908 µM | Cc1ccc2nc(N3CCS(=O)(=O)c4ccccc4C3)cc(NCC3(CN)CS(=O)(=O)C3)c2c1 [Example 6-2, N-{[3-(Aminomethyl)-1,1-dioxidothietan-3-yl]methyl}-2-(1,1-dioxido-2,3-dihydro-1,4-benzothiazepin-4(5H)-yl)-6-methylquinolin-4-amine]
0.002 µM | Cc1ccc2nc(N3CCS(=O)(=O)c4ccccc4C3)cc(NC(CN)(CO)CO)c2c1 [Example 72, 2-(Aminomethyl)-2-{[2-(1,1-dioxido-2,3-dihydro-1,4-benzothiazepin-4(5H)-yl)-6-methylquinolin-4-yl]amino}propane-1,3-diol]
5.54 µM | NCCCNc1cc(N2CCS(=O)(=O)c3ccccc3C2)nc2ccc(OC(F)(F)F)cc12 [Example 17-1, N-[2-(1,1-Dioxido-2,3-dihydro-1,4-benzothiazepin-4(5H)-yl)-6-(trifluoromethoxy)quinolin-4-yl]propane-1,3-diamine]
0.063 µM | CNCCNc1cc(N2CCS(=O)(=O)c3ccccc3C2)nc2ccc(Cl)cc12 [Example 9-32, N-[6-Chloro-2-(1,1-dioxido-2,3-dihydro-1,4-benzothiazepin-4(5H)-yl)quinolin-4-yl]-N′-methylethane-1,2-diamine]
0.014 µM | CC(O)c1ccc2nc(N3CCS(=O)(=O)c4ccccc4C3)cc(NCCCN)c2c1 (stereo not shown) [Example 82, 1-{4-[(3-Aminopropyl)amino]-2-(1,1-dioxido-2,3-dihydro-1,4-benzothiazepin-4(5H)-yl)quinolin-6-yl}ethanol]
2.02 µM | CC(=O)NCC1(CNc2cc(N3CCS(=O)(=O)c4ccccc4C3)nc3ccc(C)cc23)COC1 [Example 63-2, N-{[3-({[2-(1,1-D ioxido-2,3-dihydro-1,4-benzothiazepin-4(5H)-yl)-6-methylquinolin-4-yl]amino}methyl)oxetan-3-yl]methyl}acetamide]
8.95 µM | Cc1ccc2nc(N3CCS(=O)(=O)c4ccccc4C3)cc(NCCC(N)C(F)(F)F)c2c1 (stereo not shown) [Example 42-1, N^˜1^˜-[2-(1,1-Dioxido-2,3-dihydro-1,4-benzothiazepin-4(5H)-yl)-6-methylquinolin-4-yl]-4,4,4-trifluorobutane-1,3-diamine]
1.99 µM | Cc1ccc2nc(N3CCS(=O)(=O)c4cc(Cl)ccc4C3)cc(NCC(O)CO)c2c1 (stereo not shown) [Example 32-3, 3-{[2-(8-Chloro-1,1-dioxido-2,3-dihydro-1,4-benzothiazepin-4(5H)-yl)-6-methylquinolin-4-yl]amino}propane-1,2-diol]
6.25 µM | Cc1ccc2nc(N3CCS(=O)(=O)c4ccccc4C3)cc(NC3(CCO)COC3)c2c1 [Example 5-12, 3-{[2-(1,1-Dioxido-2,3-dihydro-1,4-benzothiazepin-4(5H)-yl)-6-methylquinolin-4-yl]amino}oxetan-3-ethanol]
0.092 µM | Cc1ccc2nc(N3CCS(=O)(=O)c4ccccc4C3)cc(N3CCCNCC3)c2c1 [Example 3-36, 4-[4-(1,4-Diazepan-1-yl)-6-methylquinolin-2-yl]-2,3,4,5-tetrahydro-1,4-benzothiazepine 1,1-dioxide]
6.25 µM | NCC(=O)Nc1cc(N2CCCc3ccccc3C2)nc2ccccc12 [Example 127, N-[2-(1,3,4,5-Tetrahydro-2H-2-benzazepin-2-yl)quinolin-4-yl]glycinamide]
0.097 µM | Cc1ccc2nc(N3CCS(=O)(=O)c4ccccc4C3)nc(NCC3(N)CCC3)c2c1 [Example 61-2, N-[(1-Aminocyclobutyl)methyl]-2-(1,1-dioxido-2,3-dihydro-1,4-benzothiazepin-4(5H)-yl)-6-methylquinazolin-4-amine]
5.51 µM | Cc1ccc2nc(N3CCS(=O)(=O)c4ccccc4C3)cc(N[C@H]3CC[C@H](O)CC3)c2c1 [Example 8-1, trans-4-{[2-(1,1-Dioxido-2,3-dihydro-1,4-benzothiazepin-4(5H)-yl)-6-methylquinolin-4-yl]amino}cyclohexanol]
2.39 µM | Cc1ccc2nc(N3CCS(=O)(=O)c4ccccc4C3)cc(NCC(F)(F)C(F)(F)CN)c2c1 [Example 3-43, N-[2-(1,1-Dioxido-2,3-dihydro-1,4-benzothiazepin-4(5H)-yl)-6-methylquinolin-4-yl]-2,2,3,3-tetrafluorobutane-1,4-diamine]

EC50 | SMILES
3.48 µM | Cc1ccc2nc(N3CCS(=O)(=O)c4ccccc4C3)cc(NCC(=O)O)c2c1 [Example 9-8, N-[2-(1,1-Dioxido-2,3-dihydro-1,4-benzothiazepin-4(5H)-yl)-6-methylquinolin-4-yl]glycine]
0.018 µM | Cc1ccc2nc(N3CCS(=O)(=O)c4ccccc4C3)cc(NC[C@@H](C)N)c2c1 [Example 5-9, (2R)—N˜1˜-[2-(1,1-Dioxido-2,3-dihydro-1,4-benzothiazepin-4(5H)-yl)-6-methylquinolin-4-yl]propane-1,2-diamine]
1.39 µM | Cc1ccc2nc(N3CCS(=O)(=O)c4ccccc4C3)cc(NC3CCOCC3)c2c1 [Example 3-27, 2-(1,1-Dioxido-2,3-dihydro-1,4-benzothiazepin-4(5H)-yl)-6-methyl-N-(tetrahydro-2H-pyran-4-yl)quinolin-4-amine]
0.873 µM | Cc1ccc2nc(N3CCC(F)(F)c4ccccc4C3)cc(NC3CCCC(N)C3)c2c1 (stereo not shown) [Example 111-7, N-[2-(5,5-Difluoro-1,3,4,5-tetrahydro-2H-2-benzazepin-2-yl)-6-methylquinolin-4-yl]cyclohexane-1,3-diamine]
6.65 µM | Cc1ccc2nc(N3CCS(=O)(=O)c4ccccc4C3)cc(N3C[C@@H]4OC(N)=N[C@@H]4C3)c2c1 (relative stereo) [Example 38-5, cis-5-[2-(1,1-Dioxido-2,3-dihydro-1,4-benzothiazepin-4(5H)-yl)-6-methylquinolin-4-yl]-4,5,6,6a-tetrahydro-3aH-pyrrolo[3,4-d][1,3]oxazol-2-amine]
0.022 µM | Cc1ccc2nc(N3CCS(=O)(=O)c4ccccc4C3)cc(NCC3CCNCC3)c2c1 [Example 3-29, 2-(1,1-Dioxido-2,3-dihydro-1,4-benzothiazepin-4(5H)-yl)-6-methyl-N-(piperidin-4-ylmethyl)quinolin-4-amine]
0.023 µM | Cc1ccc2nc(N3CCS(=O)(=O)c4ccccc4C3)cc(NCC3CNCCO3)c2c1 (stereo not shown) [Example 21-1, 2-(1,1-Dioxido-2,3-dihydro-1,4-benzothiazepin-4(5H)-yl)-6-methyl-N-(morpholin-2-ylmethyl)quinolin-4-amine]
0.002 µM | Cc1ccc2nc(N3CCS(=O)(=O)c4ccccc4C3)nc(NCC3(CN)COC3)c2c1 [Example 56-1, N-{[3-(Aminomethyl)oxetan-3-yl]methyl}-2-(1,1-dioxido-2,3-dihydro-1,4-benzothiazepin-4(5H)-yl)-6-methylquinazolin-4-amine]
6.75 µM | Cc1ccc2nc(N3CCC(F)(F)c4ccccc4C3)cc(N(CCO)CCO)c2c1 [Example 110-11, 2,2′-{[2-(5,5-Difluoro-1,3,4,5-tetrahydro-2H-2-benzazepin-2-yl)-6-methylquinolin-4-yl]imino}diethanol]
2.19 µM | Cc1ccc2nc(N3CCS(=O)(=O)c4ccccc4C3)cc(N[C@@H](C)C(=O)O)c2c1 [Example 14-1, N-[2-(1,1-Dioxido-2,3-dihydro-1,4-benzothiazepin-4(5H)-yl)-6-methylquinolin-4-yl]-L-alanine]
0.02 µM | Cc1ccc2nc(N3CC[S+]([O-])c4ccccc4C3)cc(N3CCC(N)C3)c2c1 (stereo not shown) [Example 19-4, 1-[6-Methyl-2-(1-oxido-2,3-dihydro-1,4-benzothiazepin-4(5H)-yl)quinolin-4-yl]pyrrolidin-3-amine]
0.072 µM | Cc1ccc2nc(N3CCS(=O)(=O)c4ccc(F)cc4C3)cc(NCC3(N)COC3)c2c1 [Example 1-3, N-[(3-Aminooxetan-3-yl)methyl]-2-(7-fluoro-1,1-dioxido-2,3-dihydro-1,4-benzothiazepin-4(5H)-yl)-6-methylquinolin-4-amine]
0.007 µM | O=S1(=O)CCN(c2cc(N[C@@H]3CNC[C@H]3O)c3ccccc3n2)Cc2ccccc21 (relative stereo) [Example 28-2, trans-4-{[2-(1,1-Dioxido-2,3-dihydro-1,4-benzothiazepin-4(5H)-yl)quinolin-4-yl]amino}pyrrolidin-3-ol]
5.19 µM | Cc1ccc2nc(N3CCS(=O)(=O)c4ccccc4C3)cc(N3CC(N)C4(COC4)C3)c2c1 (stereo not shown) [Example 23, 6-[2-(1,1-Dioxido-2,3-dihydro-1,4-benzothiazepin-4(5 H)-yl)-6-methylquinolin-4-yl]-2-oxa-6-azaspiro[3.4]octan-8-amine]
3.13 µM | CC(=O)NCCNc1cc(N2CCS(=O)(=O)c3ccccc3C2)nc2ccc(C)cc12 [Example 63-1, N-(2-{[2-(1,1-Dioxido-2,3-dihydro-1,4-benzothiazepin-4(5H)-yl)-6-methylquinolin-4-yl]amino}ethyl)acetamide]
2.23 µM | CN(C)CCNc1cc(N2CCCc3ccccc3C2)nc2ccccc12 [Example 118-22, N,N-Dimethyl-N′-[2-(1,3,4,5-tetrahydro-2H-2-benzazepin-2-yl)quinolin-4-yl]ethane-1,2-diamine]
0.016 µM | Cc1ccc2nc(N3CCS(=N)(=O)c4ccccc4C3)cc(N3CC(N)C(O)C3)c2c1 (stereo not drawn) [Example 78-1, trans-4-Amino-1-[2-(1-imino-1-oxido-1,2,3,5-tetrahydro-4H-1lambda˜4˜,4-benzothiazepin-4-yl)-6-methylquinolin-4-yl]pyrrolidin-3-ol]
